Assay results taken from ChEMBL document CHEMBL3351812, “Discovery and SAR of a novel series of metabotropic glutamate receptor 5 positive allosteric modulators with high ligand efficiency” (Bioorg Med Chem Lett, 2014).
Activity calls are given as the source filed them. The calls are words filed in the database; no cut-off is given here.

Tests used:
[1] = target: Metabotropic glutamate receptor 5 (Rattus norvegicus, UniProt P31424); test: (§1) Positive allosteric modulation of rat mGlu5 receptor expressed in HEK293 cells; type: cell-based
Sequence of Metabotropic glutamate receptor 5 (P31424 whole entry): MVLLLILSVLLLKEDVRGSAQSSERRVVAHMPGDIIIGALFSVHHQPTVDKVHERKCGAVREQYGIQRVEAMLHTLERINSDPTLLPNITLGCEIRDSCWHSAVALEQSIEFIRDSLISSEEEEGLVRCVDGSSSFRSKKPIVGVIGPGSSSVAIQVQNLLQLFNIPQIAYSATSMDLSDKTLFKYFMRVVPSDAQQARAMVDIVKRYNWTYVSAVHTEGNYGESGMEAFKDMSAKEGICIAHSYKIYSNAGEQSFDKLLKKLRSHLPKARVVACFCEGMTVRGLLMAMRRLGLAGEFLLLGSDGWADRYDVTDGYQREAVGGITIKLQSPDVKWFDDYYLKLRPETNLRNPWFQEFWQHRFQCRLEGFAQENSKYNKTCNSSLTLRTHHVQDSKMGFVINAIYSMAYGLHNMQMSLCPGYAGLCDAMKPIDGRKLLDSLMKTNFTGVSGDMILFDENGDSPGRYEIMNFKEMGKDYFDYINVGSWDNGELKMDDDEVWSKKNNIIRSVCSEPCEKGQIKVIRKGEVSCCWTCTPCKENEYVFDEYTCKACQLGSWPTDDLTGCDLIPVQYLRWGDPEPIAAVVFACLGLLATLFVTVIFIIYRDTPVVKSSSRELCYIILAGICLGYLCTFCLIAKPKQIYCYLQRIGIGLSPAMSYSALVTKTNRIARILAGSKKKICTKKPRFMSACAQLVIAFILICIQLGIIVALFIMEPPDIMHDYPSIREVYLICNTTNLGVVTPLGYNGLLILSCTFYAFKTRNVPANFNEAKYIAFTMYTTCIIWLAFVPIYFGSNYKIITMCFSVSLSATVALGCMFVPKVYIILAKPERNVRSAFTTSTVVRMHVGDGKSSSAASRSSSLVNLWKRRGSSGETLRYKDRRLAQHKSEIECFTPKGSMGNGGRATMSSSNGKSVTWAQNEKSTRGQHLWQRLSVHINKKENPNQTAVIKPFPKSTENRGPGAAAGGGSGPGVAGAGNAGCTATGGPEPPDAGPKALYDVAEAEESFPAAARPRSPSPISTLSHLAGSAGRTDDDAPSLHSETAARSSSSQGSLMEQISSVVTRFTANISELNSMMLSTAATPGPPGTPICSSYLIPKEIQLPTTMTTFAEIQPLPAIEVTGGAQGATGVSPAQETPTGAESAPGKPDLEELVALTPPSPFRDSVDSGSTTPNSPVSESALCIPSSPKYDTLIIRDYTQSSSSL

[2] = target: Metabotropic glutamate receptor 5 (Rattus norvegicus) (UniProt P31424); test: Positive allosteric modulation of rat mGlu5 receptor expressed in HEK293 cells relative to glutamate; type: cell-based; set-up: concentration or dose not given beside the values
Sequence of Metabotropic glutamate receptor 5 (Rattus norvegicus) (P31424 21-1203 limits assumed): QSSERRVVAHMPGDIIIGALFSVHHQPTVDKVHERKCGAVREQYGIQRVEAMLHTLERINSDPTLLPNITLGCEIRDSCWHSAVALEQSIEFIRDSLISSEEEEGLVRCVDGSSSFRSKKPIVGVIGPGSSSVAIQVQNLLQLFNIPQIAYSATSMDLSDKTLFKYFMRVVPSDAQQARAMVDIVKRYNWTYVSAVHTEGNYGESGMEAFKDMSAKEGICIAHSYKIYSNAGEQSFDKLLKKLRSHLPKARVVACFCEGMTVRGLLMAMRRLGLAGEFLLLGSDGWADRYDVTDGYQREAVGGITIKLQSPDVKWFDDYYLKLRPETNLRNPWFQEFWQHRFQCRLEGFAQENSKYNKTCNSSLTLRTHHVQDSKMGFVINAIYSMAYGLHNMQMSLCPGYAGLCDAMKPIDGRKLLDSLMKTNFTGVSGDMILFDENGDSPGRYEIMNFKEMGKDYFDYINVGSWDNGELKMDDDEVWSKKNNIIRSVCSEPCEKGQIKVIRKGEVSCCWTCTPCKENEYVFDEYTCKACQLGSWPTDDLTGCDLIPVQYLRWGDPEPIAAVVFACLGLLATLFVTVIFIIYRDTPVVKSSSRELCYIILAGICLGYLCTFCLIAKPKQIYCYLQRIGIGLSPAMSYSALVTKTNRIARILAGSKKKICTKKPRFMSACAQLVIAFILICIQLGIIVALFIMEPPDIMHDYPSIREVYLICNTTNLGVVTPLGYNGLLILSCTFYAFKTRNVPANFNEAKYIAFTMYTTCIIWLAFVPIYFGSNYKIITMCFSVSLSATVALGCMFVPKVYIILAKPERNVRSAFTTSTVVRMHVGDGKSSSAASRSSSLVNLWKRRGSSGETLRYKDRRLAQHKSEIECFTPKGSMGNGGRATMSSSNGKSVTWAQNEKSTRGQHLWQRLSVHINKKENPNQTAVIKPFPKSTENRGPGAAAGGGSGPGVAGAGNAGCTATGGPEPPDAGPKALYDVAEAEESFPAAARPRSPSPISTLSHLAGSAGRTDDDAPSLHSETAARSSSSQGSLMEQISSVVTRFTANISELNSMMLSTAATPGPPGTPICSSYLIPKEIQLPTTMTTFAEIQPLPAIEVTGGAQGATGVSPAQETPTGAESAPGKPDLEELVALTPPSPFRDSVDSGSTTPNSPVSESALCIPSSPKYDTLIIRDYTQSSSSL

Plasma [3] = test: (§2) Fraction unbound in rat plasma; type: ADME, cell-free
Plasma [4] = test: (§3) Fraction unbound in human plasma; type: ADME, cell-free
[5] = target: Metabotropic glutamate receptor 5 (Rattus norvegicus) (UniProt P31424); test: as §1; type: cell-based
[6] = target: Metabotropic glutamate receptor 1 (Rattus norvegicus) (UniProt P23385); test: Positive allosteric modulation of rat mGlu1 receptor
[7] = target: Metabotropic glutamate receptor 2 (Rattus norvegicus) (UniProt P31421); test: Positive allosteric modulation of rat mGlu2 receptor
Sequence of Metabotropic glutamate receptor 2 (Rattus norvegicus) (P31421 19-872 limits assumed): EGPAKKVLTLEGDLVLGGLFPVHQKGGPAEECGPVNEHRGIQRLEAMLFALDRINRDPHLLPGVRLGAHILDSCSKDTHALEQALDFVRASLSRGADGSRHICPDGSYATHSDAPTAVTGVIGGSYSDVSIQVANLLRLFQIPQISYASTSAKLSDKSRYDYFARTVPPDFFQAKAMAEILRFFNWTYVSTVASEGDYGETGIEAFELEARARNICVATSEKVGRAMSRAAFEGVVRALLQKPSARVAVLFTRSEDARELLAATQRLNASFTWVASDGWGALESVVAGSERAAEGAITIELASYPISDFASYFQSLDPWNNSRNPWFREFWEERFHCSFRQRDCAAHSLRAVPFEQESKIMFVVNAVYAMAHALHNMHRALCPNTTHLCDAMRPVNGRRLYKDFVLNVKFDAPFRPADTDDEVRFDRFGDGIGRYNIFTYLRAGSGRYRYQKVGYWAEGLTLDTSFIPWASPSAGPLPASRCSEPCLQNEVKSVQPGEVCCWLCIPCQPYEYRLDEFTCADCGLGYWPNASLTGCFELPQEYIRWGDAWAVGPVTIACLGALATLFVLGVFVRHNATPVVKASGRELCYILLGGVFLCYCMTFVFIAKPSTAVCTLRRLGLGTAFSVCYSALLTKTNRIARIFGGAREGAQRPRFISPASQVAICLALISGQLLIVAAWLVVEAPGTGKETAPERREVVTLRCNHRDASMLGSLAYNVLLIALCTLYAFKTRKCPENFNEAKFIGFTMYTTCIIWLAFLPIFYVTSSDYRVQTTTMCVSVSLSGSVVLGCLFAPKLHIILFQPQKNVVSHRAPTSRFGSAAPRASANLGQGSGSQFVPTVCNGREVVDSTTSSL

[8] = target: Metabotropic glutamate receptor 3 (Rattus norvegicus) (UniProt P31422); test: Positive allosteric modulation of rat mGlu3 receptor
[9] = target: Metabotropic glutamate receptor 6 (Rattus norvegicus) (UniProt P35349); test: Positive allosteric modulation of rat mGlu6 receptor
[10] = target: Metabotropic glutamate receptor 7 (Rattus norvegicus) (UniProt P35400); test: Positive allosteric modulation of rat mGlu7 receptor
[11] = target: Metabotropic glutamate receptor 8 (Rattus norvegicus) (UniProt P70579); test: Positive allosteric modulation of rat mGlu8 receptor
[12] = target: Metabotropic glutamate receptor 1 (Homo sapiens) (UniProt Q13255); test: Positive allosteric modulation of human mGlu1 receptor
[13] = target: Metabotropic glutamate receptor 2 (Homo sapiens) (UniProt Q14416); test: Positive allosteric modulation of human mGlu2 receptor
[14] = target: Metabotropic glutamate receptor 3 (Homo sapiens) (UniProt Q14832); test: Positive allosteric modulation of human mGlu3 receptor
[15] = target: Metabotropic glutamate receptor 6 (Homo sapiens) (UniProt O15303); test: Positive allosteric modulation of human mGlu6 receptor
[16] = target: Metabotropic glutamate receptor 7 (Homo sapiens) (UniProt Q14831); test: Positive allosteric modulation of human mGlu7 receptor
[17] = target: Metabotropic glutamate receptor 8 (Homo sapiens) (UniProt O00222); test: Positive allosteric modulation of human mGlu8 receptor
Sequence of Metabotropic glutamate receptor 8 (Homo sapiens) (O00222 whole entry): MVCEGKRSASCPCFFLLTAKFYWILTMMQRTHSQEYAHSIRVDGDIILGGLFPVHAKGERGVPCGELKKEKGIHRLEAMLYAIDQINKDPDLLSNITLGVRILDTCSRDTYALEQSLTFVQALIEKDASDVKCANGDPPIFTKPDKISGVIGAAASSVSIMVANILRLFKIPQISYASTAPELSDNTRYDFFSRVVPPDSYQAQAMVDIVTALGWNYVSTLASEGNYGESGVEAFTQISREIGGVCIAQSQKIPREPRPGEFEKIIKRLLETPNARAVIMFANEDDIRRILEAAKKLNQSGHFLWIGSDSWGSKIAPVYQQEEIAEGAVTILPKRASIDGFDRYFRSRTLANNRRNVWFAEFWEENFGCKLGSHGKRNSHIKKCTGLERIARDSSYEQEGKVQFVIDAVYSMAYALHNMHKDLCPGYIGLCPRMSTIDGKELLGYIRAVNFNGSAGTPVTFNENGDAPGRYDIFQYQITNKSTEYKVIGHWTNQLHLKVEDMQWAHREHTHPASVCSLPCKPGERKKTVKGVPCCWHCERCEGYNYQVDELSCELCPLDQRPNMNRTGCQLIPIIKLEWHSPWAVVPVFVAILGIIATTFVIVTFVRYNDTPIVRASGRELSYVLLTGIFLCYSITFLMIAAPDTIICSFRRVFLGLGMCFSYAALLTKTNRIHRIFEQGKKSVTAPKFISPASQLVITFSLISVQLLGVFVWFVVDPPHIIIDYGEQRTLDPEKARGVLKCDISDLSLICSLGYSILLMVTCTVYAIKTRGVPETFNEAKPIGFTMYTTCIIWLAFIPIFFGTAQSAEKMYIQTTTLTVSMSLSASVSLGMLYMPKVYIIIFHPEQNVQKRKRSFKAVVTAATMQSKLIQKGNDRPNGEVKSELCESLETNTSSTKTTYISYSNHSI

[18] = as §2; type: ADME, cell-free
[19] = as §3; type: ADME, cell-free
Plasma [20] = test: Stability in rat plasma at 37 degC after 4 hrs; type: ADME, cell-free
Plasma [21] = test: Stability in human plasma at 37 degC after 4 hrs; type: ADME, cell-free
Cytochrome P450 1A2 = target: T1, Cytochrome P450 1A2 (Homo sapiens, UniProt P05177); test: Inhibition of CYP1A2 (unknown origin); type: ADME
T1 sequence (P05177 whole entry): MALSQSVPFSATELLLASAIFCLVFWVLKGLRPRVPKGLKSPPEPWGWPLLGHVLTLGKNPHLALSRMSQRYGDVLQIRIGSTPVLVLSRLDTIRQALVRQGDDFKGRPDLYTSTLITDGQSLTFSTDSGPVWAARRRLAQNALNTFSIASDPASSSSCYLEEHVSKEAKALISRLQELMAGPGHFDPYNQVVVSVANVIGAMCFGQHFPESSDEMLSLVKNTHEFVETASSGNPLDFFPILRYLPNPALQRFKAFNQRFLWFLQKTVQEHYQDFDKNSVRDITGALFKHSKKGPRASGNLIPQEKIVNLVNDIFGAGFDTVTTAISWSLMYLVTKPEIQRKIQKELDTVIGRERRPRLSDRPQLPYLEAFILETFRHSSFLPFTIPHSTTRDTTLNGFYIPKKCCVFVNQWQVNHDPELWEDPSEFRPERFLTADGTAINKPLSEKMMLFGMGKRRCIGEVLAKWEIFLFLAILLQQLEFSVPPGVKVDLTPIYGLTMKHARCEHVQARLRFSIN

Cytochrome P450 2C9 = Cytochrome P450 2C9 (Homo sapiens, UniProt P11712); test: Inhibition of CYP2C9 (unknown origin); type: ADME
Cytochrome P450 2D6 = Cytochrome P450 2D6 (Homo sapiens, UniProt P10635); test: Inhibition of CYP2D6 (unknown origin); type: ADME
Cytochrome P450 3A4 = Cytochrome P450 3A4 (Homo sapiens, UniProt P08684); test: Inhibition of CYP3A4 (unknown origin); type: ADME
Sequence of Cytochrome P450 3A4 (P08684 whole entry): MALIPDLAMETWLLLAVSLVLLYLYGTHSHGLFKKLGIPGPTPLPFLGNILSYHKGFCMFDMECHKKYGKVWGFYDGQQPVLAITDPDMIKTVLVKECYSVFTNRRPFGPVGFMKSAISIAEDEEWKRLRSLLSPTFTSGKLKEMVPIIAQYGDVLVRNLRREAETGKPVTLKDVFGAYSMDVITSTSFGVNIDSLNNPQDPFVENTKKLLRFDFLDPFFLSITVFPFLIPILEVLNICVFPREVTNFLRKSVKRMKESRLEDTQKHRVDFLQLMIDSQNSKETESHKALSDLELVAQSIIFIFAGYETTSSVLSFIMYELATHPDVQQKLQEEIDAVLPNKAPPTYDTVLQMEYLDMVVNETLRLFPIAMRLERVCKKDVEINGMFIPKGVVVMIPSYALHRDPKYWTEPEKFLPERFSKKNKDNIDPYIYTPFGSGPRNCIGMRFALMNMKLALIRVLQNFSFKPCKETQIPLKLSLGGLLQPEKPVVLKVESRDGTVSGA

SMILES | EC50 [1] | Activity [2] | also measured
FC1(F)CCCn2nc(COc3ccccc3)cc21 | 0.625 µM | 52% | 
c1ccc(CNC2CCCn3nc(COc4ccccc4)cc32)cc1 (stereo not drawn) | 0.632 µM | 74% | Fu (Plasma [3]): 0.03%; Fu (Plasma [4]): 0.02%
Fc1cccc(CNC2CCCn3nc(COc4ccccc4)cc32)c1 (stereo not drawn) | 0.275 µM | 75% | 
O=C1c2cc(COc3ccccc3)nn2CCC1(Cc1ccccc1)Cc1ccccc1 | > 10 µM | 37% | 
c1ccc(OCc2cc3n(n2)CCCC3NC2CC2)cc1 (stereo not drawn) | 1.8 µM | 50% | 
O=C1CCCn2nc(OCc3ccccc3)cc21 |  |  | Activity [5]: inactive
c1ccc(NC2CCCn3nc(COc4ccccc4)cc32)cc1 (stereo not drawn) | 0.269 µM | 62% | 
COc1ccccc1C1CCn2nc(COc3ccccc3)cc2C1=O (stereo not drawn) | 0.043 µM | 68% | 
CC1(C)CCn2nc(COc3ccccc3)cc2C1O (stereo not drawn) | 4.41 µM | 60% | 
c1ccc(COC2CCCn3nc(COc4ccccc4)cc32)cc1 (stereo not drawn) | 0.989 µM | 70% | 
c1ccc(OCc2cc3n(n2)CCCC3NCc2ccncc2)cc1 (stereo not drawn) | 2.57 µM | 68% | 
CC1CCn2nc(COc3ccccc3)cc2C1=O (stereo not drawn) | 0.285 µM | 76% | 
Fc1ccc(CNC2CCCn3nc(COc4ccccc4)cc32)cc1 (stereo not drawn) | 0.316 µM | 69% | 
O=C1c2cc(OCc3ccccc3)nn2CCC1c1ccc(F)cc1 (stereo not drawn) | 0.095 µM | 48% | 
c1ccc(OCc2cc3n(n2)CCCC3OCC2CC2)cc1 (stereo not drawn) | 2.52 µM | 43% | 
CC1(C)CCn2nc(COc3ccccc3)cc2C1OCc1ccccc1 (stereo not drawn) | 2.33 µM | 64% | 
CN(Cc1ccccc1)C1CCCn2nc(COc3ccccc3)cc21 (stereo not drawn) | 0.686 µM | 71% | 
O=C1c2cc(COc3ccccc3)nn2CCC12CCCC2 | 0.048 µM | 60% | 
O=C1CCCn2nc(COc3ccccc3)cc21 | 0.129 µM | 66% | Activity [6]: > 10 µM; Activity [7]: > 10 µM; Activity [8]: > 10 µM; Activity [9]: > 10 µM; Activity [10]: > 10 µM; Activity [11]: > 10 µM; Activity [12]: > 10 µM; Activity [13]: > 10 µM; Activity [14]: > 10 µM; Activity [15]: > 10 µM; Activity [16]: > 10 µM; Activity [17]: > 10 µM; fraction unbound [18]: 0.21; fraction unbound [19]: 0.23; Stability (Plasma [20]): Stable; Stability (Plasma [21]): Stable; IC50 (Cytochrome P450 1A2): 6.2 µM; inhibition (INH) (Cytochrome P450 2C9): Active; inhibition (INH) (Cytochrome P450 2D6): Active; inhibition (INH) (Cytochrome P450 3A4): Active
CC1(C)CCn2nc(COc3ccccc3)cc2C1=O | 0.086 µM | 70% | fraction unbound [18]: 0.07; fraction unbound [19]: 0.1; IC50 (Cytochrome P450 1A2): 7.3 µM
O=C1c2cc(COc3ccccc3)nn2CCC1Cc1ccccc1 (stereo not drawn) | 0.124 µM | 73% | 

SMILES | EC50 [1] | Activity [2] | also measured
COc1ccccc1C1(C)CCn2nc(COc3ccccc3)cc2C1=O (stereo not drawn) | 0.654 µM | 52% | 
Clc1ccc(CNC2CCCn3nc(COc4ccccc4)cc32)cc1 (stereo not drawn) | 0.637 µM | 65% | 
NC1CCCn2nc(COc3ccccc3)cc21 (stereo not drawn) | > 10 µM | 45% | 
CC(C)N1CCN(C2CCCn3nc(COc4ccccc4)cc32)CC1 (stereo not drawn) | 0.87 µM | 71% | 
CC1(C)CCn2nc(COc3ccccc3)cc2C1NCc1ccccc1 (stereo not drawn) | 3.62 µM | 65% | 
O=C1CCCc2nc(COc3ccccc3)sc21 | 0.441 µM | 65% | 
CC1(c2ccc(F)cc2)CCn2nc(COc3ccccc3)cc2C1=O (stereo not drawn) | 0.228 µM | 58% | 
COc1ccc(CNC2CCCn3nc(COc4ccccc4)cc32)cc1 (stereo not drawn) | 0.29 µM | 60% | 
CC1CCn2nc(COc3ccccc3)cc2C1(C)O (stereo not drawn) | 1.68 µM | 39% | 
COC1CCCn2nc(COc3ccccc3)cc21 (stereo not drawn) | 2.91 µM | 43% | 
OC1CCCn2nc(COc3ccccc3)cc21 (stereo not drawn) | 2.01 µM | 47% | 
O=C1c2cc(COc3ccccc3)nn2CCC1c1ccc(F)cc1 (stereo not drawn) | 0.035 µM | 66% | fraction unbound [18]: 0.032; fraction unbound [19]: 0.008
c1ccc(CNC2CCCn3nc(OCc4ccccc4)cc32)cc1 (stereo not drawn) | 0.618 µM | 48% | 
OC1(C(F)(F)F)CCCn2nc(COc3ccccc3)cc21 (stereo not drawn) | 3.78 µM | 54% | 
c1ccc(OCc2cc3n(n2)CCCC3N2CCOCC2)cc1 (stereo not drawn) | 2.36 µM | 52% | 
CC1(C)CCn2nc(OCc3ccccc3)cc2C1=O | 0.228 µM | 56% | 
COC1c2cc(COc3ccccc3)nn2CCC1(C)C (stereo not drawn) | 0.796 µM | 75% | 
c1ccc(OCc2cc3n(n2)CCCC3NCc2cccnc2)cc1 (stereo not drawn) | 2.84 µM | 59% | 
CCCCC1(O)CCCn2nc(COc3ccccc3)cc21 (stereo not drawn) | 1.82 µM | 44% | 
OC1(c2ccccc2)CCCn2nc(COc3ccccc3)cc21 (stereo not drawn) | 1.2 µM | 49% | 
